What is called melting point is the temperature, or range, at which the solid turns liquid.

On to `CCCc1nc(SC2CCC(CC(=O)O)CC2)c(C(=O)O)n1Cc1cc2c(cc1Cl)OCO2` (stereo not drawn), for which the melting point came out at 166 °C.

In the case of `Cc1cccc(NC(=O)NCC(=O)N(CC(=O)OC(C)(C)C)c2ccccc2F)c1`, the melting point was 148 °C.

As to `CNC(=O)Oc1c(C)ccc2c1CC(C)C2(C)C` (stereo not drawn), the melting point was 110 °C.

For the compound `O=C(O)c1cc(OCCOc2cccc3ccccc23)cc(OCCOc2cccc3ccccc23)c1`, the melting point is 213 to 215 °C.

For the compound `CS(=O)(=O)c1ccc(C2=CC(=O)C3(CCOCC3)O2)cc1`, the melting point fell in the range of 163 to 165 °C.

As to `CN1CCN(c2cc3c(Cl)cccc3c(=O)[nH]2)CC1`, the melting point is 230 to 231 °C.

For `O=C(O)Cn1c(-c2ccc(Cl)cc2)nc2ccc(Cl)nc21`, the melting point was more than 250 °C.

With `Cc1ccccc1C(Oc1cc(OCc2cncs2)ccc1C#N)C(=O)O` (stereo not drawn), the melting point lay within 226 to 227 °C.

On to `NC1(c2cccc(Br)c2)CC1`, for which the melting point fell in the range of 135 to 137 °C.

The compound `CC(c1oc2ccccc2c(=O)c1-c1cccc(F)c1)n1nc(-c2csc3ccccc23)c2c(N)ncnc21` (stereo not drawn) yielded a melting point of 226 to 229 °C.

Take `Fc1cc(Cl)c(OC(F)F)cc1-n1nc2c(c1Cl)CCCC2`: the melting point fell in the range of 83 to 85 °C.

`CCNC(=O)c1c(Cl)cccc1N(C)C(C)(C)C` displayed a melting point of 106 to 108 °C.

`CCCCOc1ccc(-c2nnc(Nc3ccc(Cl)c(Cl)c3)s2)cc1` returned a melting point of 233 to 235 °C.

Turning to `COc1ccc(-c2nc(OCC(F)(F)F)nn2-c2ccc(OC)nc2)cc1`, the melting point lay in the range of 63 to 64 °C.

Take `CCOc1nc(C)nc(N)n1`: the melting point was 172 to 174 °C.

As to `COCC(COC)Oc1cc(Oc2ccc(S(C)(=O)=O)nc2)cc2cc(C3=NCC(CC(N)=O)S3)[nH]c12` (stereo not drawn), the melting point fell in the range of 172 to 173 °C.

Compound `[O-][N+](=CC=Cc1ccccc1)c1ccccc1` showed a melting point of 150 to 152 °C.

On to `CC(C(=O)NCCN(C)C)c1ccc(-c2cn3ccccc3n2)cc1` (stereo not drawn), for which the melting point was 149 to 150 °C.

Take `COC(=O)c1c(N)[nH]c2ccccc12`: the melting point was found to be 136 °C.

As for `COC(=O)c1ccc2c(c1)S(=O)(=O)c1ccccc1N=C2N1CCOCC1`, the melting point fell in the range of 164 to 166 °C.

Take `c1ccc(C(NC23CC4CC(C2)CC(OCc2ccc(-c5nc6ccccc6o5)cc2)(C4)C3)(c2ccccc2)c2ccccc2)cc1`: the melting point lay in the range of 174 to 177 °C.

`CCOC(=O)c1ccc(NC(=O)C=C2c3ccccc3CCc3ccccc32)cc1` came in with a melting point of 178 to 180 °C.

On to `C[C@@H]1N(c2ccc(C#N)c(C(F)(F)F)c2)C(=O)C[C@]1(C)O`, for which the melting point was in the range of 134 to 137 °C.

In turn, `CC(O)=C1SC(=S)N(c2ccc(Cl)cc2)C1=O` displayed a melting point of 200 to 205 °C.

`O=C1NC(=O)C(CC#Cc2ccc(Cl)cc2)(Sc2nc3ccccc3o2)S1` (stereo not drawn) came in with a melting point of 137 to 139 °C.

In turn, `CC(=O)NCC1CN(c2ccc(S(=O)(=O)CCO)c(F)c2)C(=O)O1` (stereo not drawn) yielded a melting point of 162 to 163 °C.

Take `COP(=O)(OC)C(O)[C@H](CC1CCCCC1)NC(=O)[C@H](CC(C)C)NC(=O)OCc1ccccc1` (stereo partly drawn): the melting point was found to be 151 °C.

`O=C1NCCc2c(-c3cccc(-c4ccccc4)c3)[nH]c3cccc1c23` displayed a melting point of 160 to 163 °C.

Regarding `CC(C)n1cc(-c2cnc3c(c2)nnn3Cc2ccc3ncccc3c2)cn1`, the melting point was 126 to 128 °C.

In turn, `Cc1cccc(C2CCCN2S(=O)(=O)c2ccc(Cl)cc2)c1` (racemic) gave a melting point of 78 °C.

`C=C(C(=O)c1ccc(OC)c(Cl)c1Cl)C(C)C` came in with a melting point of 46 to 51 °C.

In the case of `Nc1ncncc1Oc1ccccc1`, the melting point is 118 to 120 °C.

As for `CCOC(=O)COc1cc2c(C)csc2c(Cl)c1Cl`, the melting point lay within 115 to 117 °C.

In the case of `O=C(Nc1cccc(S(=O)(=O)NCCO)c1)c1cnn2c(C(F)(F)F)cc(-c3ccc(C(F)(F)F)cc3)nc12`, the melting point came out at 227 °C.

The compound `COc1cc(COc2cc3ncnc(Nc4ccc(Cl)cc4F)c3cc2OC)ccn1` registered a melting point of 202 to 204 °C.

As for `CC(=O)OCC1OC(n2c3ncccc3c3c4c(c5c6cccnc6[nH]c5c32)C(=O)N(C)C4=O)C(OC(C)=O)C(OC(C)=O)C1OC(C)=O` (stereo not drawn), the melting point was more than 300 °C.

Turning to `COC1CC(OCc2ccccc2)C(OS(=O)(=O)c2ccc(C)cc2)C(COC(c2ccccc2)(c2ccccc2)c2ccccc2)O1` (stereo not drawn), the melting point was 94 to 97 °C.

In the case of `Cn1nc(-c2ccc(OC(F)(F)F)cc2)cc1CBr`, the melting point fell in the range of 70 to 71 °C.

`CN(C)C=NC(=Nc1ccccc1)N1CCOCC1` registered a melting point of 109 to 112 °C.

For `CC1=C(c2ccncc2)SC(C)C(=O)N1` (stereo not drawn), the melting point is 144 to 146 °C.

As to `O=C(c1nc2ccccc2s1)C1CCN(CCc2ccc(F)cc2)CC1`, the melting point fell in the range of 97 to 98 °C.

Compound `CC(c1ccc(S(C)(=O)=O)cn1)C(O)(Cn1cncn1)c1ccc(F)cc1F` (stereo not drawn) gave a melting point of 176 to 177 °C.

For the compound `CN(C)c1ccc(NC(=O)N(CC2CCCCC2)C[C@H]2CC[C@H](CN(CC3CCCCC3)C(=O)Nc3ccc(N(C)C)cc3)CC2)cc1`, the melting point was 210 to 212 °C.

`COc1ccccc1CC(=O)N1C[C@@H]2SCCC(c3ccccc3)(c3ccccc3)[C@@H]2C1` (racemic) had a melting point of 172 °C.

In the case of `COc1cc2c(c(Cl)c1Cl)S(=O)(=O)C(c1ccccc1F)=C2`, the melting point was in the range of 267 to 268 °C.

In turn, `COC1(c2ccc(F)cc2)CCC(=NO)CC1` (stereo not drawn) came in with a melting point of 86 to 89 °C.

Regarding `CCOC(=O)C(C(=O)Nc1ccc(Br)cc1C)[N+](=O)[O-]` (stereo not drawn), the melting point lay in the range of 126 to 129 °C.

For `CC(C)C(=O)CC(=O)c1ccc(C(=O)CC(=O)C(C)C)cc1`, the melting point was in the range of 97 to 97.5 °C.

The compound `CCCCCCCCC=CCCCCCCCC(=O)OCCCCCCCCCC` displayed a melting point of 70 °C.

Regarding `CCOC(=O)N1CCC2CN(c3c(F)cc4c(=O)c(C(=O)O)cn(C5CC5)c4c3F)CC21` (stereo not drawn), the melting point was in the range of 191 to 192 °C.

In turn, `O=C(Cc1ccccc1)c1ccc(SC(F)F)cc1` showed a melting point of 42 to 45 °C.

As to `CCc1cc(C(=O)c2ccccc2Cl)c(-n2c(C)nnc2CCl)s1`, the melting point lay in the range of 109 to 110 °C.

As for `Nc1ccc(CCN2CCC(Nc3nc4ccccc4n3Cc3ccc(F)cc3)CC2)cc1`, the melting point is 195 °C.

With `O=c1[nH]c2cccnc2n1-c1ccncc1`, the melting point lay within 265 to 267 °C.

Turning to `CC12CCC3C(CCC4C(O)CCCC43C)C1CCC2OC1CCCCO1` (stereo not drawn), the melting point is 167 to 170 °C.

As for `COc1nccnc1NS(=O)(=O)c1ccc(Cl)s1`, the melting point was in the range of 119 to 120 °C.

`c1ccc2c(c1)c(-c1cc3nccnc3[nH]1)cn2CCCN1CCCCC1` displayed a melting point of 240 °C.

`CCCCc1cc(C(=O)O)ncc1C(=O)O`: the melting point came to 239 °C.

`CN(C)CCNc1ccc([N+](=O)[O-])c2sc3ccccc3c(=O)c12` gave a melting point of 177 to 179 °C.

`CC(=O)Nc1ccc(CCC(=O)O)cc1` had a melting point of 127 to 138 °C.

With `COC(=O)C1c2c(C)c(O)c(C)c(C)c2OC1(C)C` (stereo not drawn), the melting point lay in the range of 145 to 146 °C.

For `Nc1ccccc1Nc1ccc(Oc2ccc(C(c3ccc(Oc4ccc(Nc5ccccc5N)cc4)cc3)(C(F)(F)F)C(F)(F)F)cc2)cc1`, the melting point was 62.4 to 64.1 °C.

As for `COC1(c2cc(F)cc(Sc3ccc(/C(C)=N/O)c(OCc4ccccc4)c3)c2)CCOCC1`, the melting point was in the range of 130 to 131 °C.

With `CN1C(=O)N(C)C(Cc2c[nH]c3ccccc23)C1CCc1cc(C(F)(F)F)cc(C(F)(F)F)c1` (stereo not drawn), the melting point fell in the range of 202 to 205 °C.

`CCOC(=O)N1CCC(c2ccc3oc(-c4ccc(S(C)(=O)=O)cc4F)nc3c2)CC1`: the melting point fell in the range of 145 to 148 °C.

In the case of `O=C(O)c1ccccc1-c1nc(-c2cc(C(F)(F)F)cc(C(F)(F)F)c2)no1`, the melting point lay in the range of 178 to 182 °C.

Compound `O=C(O)c1ccc(Cl)cc1C(F)(F)F` came in with a melting point of 106 to 108 °C.

The compound `CNC(=O)C(Cc1ccccc1)NC(=O)C(CC(C)C)C(S)CC(=O)OC` (stereo not drawn) came in with a melting point of 169 to 171 °C.

`CC(C)(C)OC(=O)N1CCC(OCc2ccccc2)C1CC(=O)Cn1cnc2cccc(F)c2c1=O` (stereo not drawn): the melting point stood at 221 °C.

The compound `CCNC1CCc2[nH]c3ccc(OCc4ccccc4)cc3c2C1` (stereo not drawn) registered a melting point of 117 to 118 °C.

`O=C(C(Cl)c1ccccc1)N1CCCC1` (stereo not drawn) displayed a melting point of 88.5 °C.

Regarding `COc1cc(C(C)=O)ccc1OCCCN1CCC(c2noc3cc(Cl)ccc23)CC1`, the melting point lay within 116 to 118 °C.

Regarding `C=C(C)C(=O)N1CC(C)OC1(C)C` (stereo not drawn), the melting point was 24 °C.

In turn, `COP(=O)(Nc1ccc([N+](=O)[O-])c(NCCc2ccccc2)c1)OC` showed a melting point of 128 °C.

As for `CCCCOC(=O)C(N)C=CCP(=O)(O)O` (stereo not drawn), the melting point lay within 160 to 161 °C.

Turning to `CSc1nc2cc(C(F)(F)F)ccc2n1N`, the melting point fell in the range of 170 to 173 °C.

Compound `CCOCc1nc2c(N)nc(C)c(C)c2n1CCOCc1ccncc1` showed a melting point of 143 to 145 °C.

In the case of `Cc1cc(SC#N)c(C)c(C)c1O`, the melting point came out at 100 °C.

`O=C1OC2(c3ccccc3)CCCN2c2ccccc21` (stereo not drawn) showed a melting point of 152 °C.

The compound `COc1ccc2c(c1)N(CCCCl)c1cccc(S(=O)(=O)N(C)C)c1S2` registered a melting point of 124 to 126 °C.

In turn, `O=C1c2cccc([N+](=O)[O-])c2C(=O)N1c1ccc(O)cc1` showed a melting point of 202 °C.

In turn, `Cc1c(-c2ccccc2)oc2c(C(=O)NCCCO)cccc2c1=O` had a melting point of 191 to 193 °C.

`Cc1ccc(CC2(O)CCN(CC3=Cc4ccc(O)cc4C3)CC2)cc1` gave a melting point of 154 to 157 °C.

For `O=C(NCCSCc1cccc(Cl)c1)c1c(F)cccc1F`, the melting point fell in the range of 41 to 43 °C.

The compound `COC(=O)c1cc(C(=O)c2ncc3ccc(C(=O)O)cn23)ccc1[N+](=O)[O-]` came in with a melting point of 290 °C.

Compound `CCOC(=O)N1CCN(c2nc(NC(C)=O)ccc2F)CC1` gave a melting point of 132 to 133 °C.

For the compound `CCOC(=O)COC(c1cccc(-c2nnc(Nc3ccc(Cl)c(Cl)c3)s2)c1)c1cccc(C(F)(F)F)c1` (stereo not drawn), the melting point fell in the range of 135 to 136 °C.

Consider `Cc1ccc(-c2ccccc2S(N)(=O)=O)cc1`, for which the melting point was found to be 122 °C.

The values above are taken from a melting point compilation (Tetko et al.; mined from patent text by program, amines drawn as free bases though some values may be those of a salt).
